The numbers were not newly measured in EP3045477B1, “Method for reducing the migration of photoinitiators and their degradation products in UV curable coatings” (IOT - Innovative Oberflächentechnologien GmbH, priority 2015, dated 2016), which cites them from elsewhere.

The conditions of this series: listed limit, Verordnung (EU) 10/2011.

Take `Cc1cc(C(C)(C)C)c(O)c(C(C)(C)C)c1` [Butylhydroxy toluol, Butylhydroxytoluol]: the “spezifische Migrationslimit” value is 3 mg/kg.
